{
  "source": "patent US20240279232A1",
  "about": "“USE OF SUBSTITUTED 5-(4-METHYL-6-PHENYL-4H-BENZO[F]IMIDAZO[1,5-A][1,4] DIAZEPIN-3-YL)-1,2,4-O[…] THE TREATMENT OF INFLAMMATORY CONDITIONS” (priority 2021, published 2024)",
  "key": {"iNOS mRNA": {"tested_on": "iNOS mRNA", "assay": "iNOS RT-qPCR in activated microglia", "format": "cell-based, mouse", "conditions": "10 μM", "experimental": "Mouse microglia were activated with IFNγ/LPS and treated with vehicle or 10 μM GL-IV-03. mRNA was isolated after 15 min, 1 h, 3 h and 6 h and iNOS was quantified using RT-qPCR. Cycle numbers for each sample were normalized to GAPDH using the ΔCt method (n=3). Mouse microglia were activated with IFNγ/LPS and treated with vehicle or 10 μM GL-IV-03 for 24 h. Cellular protein was extracted and analyzed with the mouse iNOS ELISA kit from Abcam (n=3). *, (p<0.05), ** (p<0.01) or *** (p<0.001) significance was calculate with ANOVA.\niNOS RT-qPCR. 1×10^6 mouse microglia cells were plated in 6 well plates (VWR, 10062-892) in 1-2 mL of media, activated with 50 ng/ml LPS (Invivogen, NC9836) and 150 U/mL IFNγ (R&D Systems, 485MI100), and treated with compounds of interest. […] Plates were incubated for stated times at 37° C. and 5% CO2. mRNA was collected using QIAshredder (Qiagen, 79654) and RNeasy Mini Kit (Qiagen, 74104). mRNA was analyzed using the QuantiFast SYBR Green RT-PCR kit (Qiagen, 204154) along with iNOS primers (F. 5′-ACATCAGGTCGGCCATCACT-3′, R: 5′-CGTACCGGATGAGCTGTGAAT-3′). Expected product size was 87 bp. Data were acquired using an Eppendorf Mastercycler Pro and analyzed by the Delta Ct method. Each measurement was carried out in triplicate and significance analyzed by ANOVA. […]"}, "Beta3": {"molecular_target": "Beta3 (Homo sapiens, UniProt P13945)", "assay": "PDSP primary binding Beta3", "conditions": "PDSP primary screening", "experimental": "(§1) Because reduction of NO could not be reversed by GABAAR antagonists, the possible binding of MP-IV-010 to other cellular receptors was evaluated in collaboration with the NIMH Psychoactive Drug Screening Program.\n(§2) Psychoactive Drug Screening Program. Detailed protocols for the primary and secondary radioligand binding assays can be found in the National Institute of Mental Health's Psychoactive Drug Screening Program (NIMH PDSP) Assay Protocol Book. Briefly, primary and secondary radioligand binding assays are carried out in a final of volume of 125 μL per well in appropriate binding buffer. The radioactive ligand concentration is close to the Kd. Total binding and nonspecific binding are determined in the absence and presence of 10 μM of appropriate reference compound, respectively. In brief, plates are usually incubated at room temperature and in the dark for 90 min. Reactions are stopped by vacuum filtration onto 0.3% polyethyleneimine (PEI) soaked 96-well filter mats using a 96-well Filtermate harvester, followed by three washes with cold PBS buffer. Scintillation cocktail is then melted onto the microwave-dried filters on a hot plate and radioactivity counted in a Microbeta counter. The data (n=6) were analyzed by nonlinear regression."}, "Alpha2B": {"molecular_target": "Alpha2B (Homo sapiens, UniProt P18089)", "assay": "PDSP primary binding Alpha2B", "conditions": "PDSP primary screening", "experimental": "as §1, §2"}, "HERG": {"molecular_target": "HERG (Homo sapiens, UniProt Q12809)", "assay": "PDSP primary HERG binding", "conditions": "PDSP primary screening", "experimental": "as §1, §2"}, "5-HT1D": {"molecular_target": "5-HT1D (Homo sapiens, UniProt P28221)", "assay": "PDSP primary binding 5-HT1D", "conditions": "PDSP primary screening", "experimental": "as §1, §2"}, "D3": {"molecular_target": "D3 (Homo sapiens, UniProt P35462)", "sequence (P35462 whole entry)": "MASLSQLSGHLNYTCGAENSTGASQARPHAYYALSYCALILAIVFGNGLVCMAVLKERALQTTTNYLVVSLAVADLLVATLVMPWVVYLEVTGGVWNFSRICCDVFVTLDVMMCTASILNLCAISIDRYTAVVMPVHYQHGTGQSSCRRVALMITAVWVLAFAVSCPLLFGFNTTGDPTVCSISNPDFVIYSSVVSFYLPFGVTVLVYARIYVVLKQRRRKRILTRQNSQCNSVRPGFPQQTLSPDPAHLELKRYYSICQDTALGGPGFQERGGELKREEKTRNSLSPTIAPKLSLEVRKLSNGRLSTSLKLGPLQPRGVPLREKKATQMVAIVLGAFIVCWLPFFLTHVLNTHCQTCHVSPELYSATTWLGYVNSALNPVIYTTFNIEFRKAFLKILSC", "assay": "PDSP primary binding D3", "conditions": "PDSP primary screening", "experimental": "as §1, §2"}, "σ2 receptor": {"molecular_target": "T1, σ2 receptor (Homo sapiens, UniProt Q5BJF2)", "T1 construct": "expressed in transfected cells; host or cells: HEK cells (stably transfected)", "T1 sequence (Q5BJF2 whole entry, species assumed)": "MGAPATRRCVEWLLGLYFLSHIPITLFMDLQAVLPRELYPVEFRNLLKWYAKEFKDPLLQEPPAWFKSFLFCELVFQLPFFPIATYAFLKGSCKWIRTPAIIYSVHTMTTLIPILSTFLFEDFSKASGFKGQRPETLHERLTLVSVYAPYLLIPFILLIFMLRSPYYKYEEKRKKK", "assay": "σ2 receptor binding (3H-ditolylguanidine, HEK cell lysate)", "experimental": "as §2"}, "α3β3γ2 GABAAR": {"molecular_target": "α3β3γ2 GABAAR (Homo sapiens, UniProt P18507+P34903)", "sequence (P34903 29-492)": "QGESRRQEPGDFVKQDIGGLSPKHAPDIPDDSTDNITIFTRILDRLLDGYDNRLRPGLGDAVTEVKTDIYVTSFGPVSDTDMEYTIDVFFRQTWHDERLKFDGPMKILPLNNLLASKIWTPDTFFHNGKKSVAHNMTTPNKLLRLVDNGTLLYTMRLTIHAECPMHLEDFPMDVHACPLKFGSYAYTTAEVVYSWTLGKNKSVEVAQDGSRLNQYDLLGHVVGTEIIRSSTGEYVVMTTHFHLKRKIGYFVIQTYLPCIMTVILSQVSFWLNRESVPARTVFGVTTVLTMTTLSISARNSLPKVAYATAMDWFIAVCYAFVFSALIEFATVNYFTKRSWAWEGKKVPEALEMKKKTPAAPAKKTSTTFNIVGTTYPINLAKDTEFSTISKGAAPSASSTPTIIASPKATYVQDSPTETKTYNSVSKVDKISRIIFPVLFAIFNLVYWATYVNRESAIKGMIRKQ", "sequence (P28472 26-473 partner)": "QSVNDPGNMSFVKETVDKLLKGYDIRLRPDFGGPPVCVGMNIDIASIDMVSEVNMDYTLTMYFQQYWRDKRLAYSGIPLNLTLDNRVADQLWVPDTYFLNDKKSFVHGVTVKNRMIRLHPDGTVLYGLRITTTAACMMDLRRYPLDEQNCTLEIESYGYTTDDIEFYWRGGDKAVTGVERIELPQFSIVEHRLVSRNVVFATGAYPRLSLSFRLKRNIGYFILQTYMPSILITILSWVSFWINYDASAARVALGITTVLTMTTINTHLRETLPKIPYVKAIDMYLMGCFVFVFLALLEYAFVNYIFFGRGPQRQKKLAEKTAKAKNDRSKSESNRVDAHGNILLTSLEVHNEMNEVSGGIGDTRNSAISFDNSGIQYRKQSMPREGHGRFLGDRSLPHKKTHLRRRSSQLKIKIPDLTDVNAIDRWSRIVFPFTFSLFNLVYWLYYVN", "sequence (P18507 40-475)": "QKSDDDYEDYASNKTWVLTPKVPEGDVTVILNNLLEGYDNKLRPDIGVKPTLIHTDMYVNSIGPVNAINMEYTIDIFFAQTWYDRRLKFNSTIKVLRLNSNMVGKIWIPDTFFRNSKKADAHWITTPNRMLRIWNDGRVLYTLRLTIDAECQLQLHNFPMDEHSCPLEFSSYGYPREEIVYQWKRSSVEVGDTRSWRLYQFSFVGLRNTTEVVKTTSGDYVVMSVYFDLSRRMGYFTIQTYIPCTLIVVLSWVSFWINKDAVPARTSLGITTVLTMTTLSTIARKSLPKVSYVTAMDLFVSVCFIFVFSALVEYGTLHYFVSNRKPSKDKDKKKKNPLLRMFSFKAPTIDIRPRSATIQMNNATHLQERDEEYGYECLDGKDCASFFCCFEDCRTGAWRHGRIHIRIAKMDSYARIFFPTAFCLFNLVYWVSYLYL", "assay": "Membrane potential red dye assay", "format": "cell-based", "experimental": "To determine the affinity of MP-IV-010 for these receptors, concentration dependent assays were carried out as depicted in FIG. 4A-4C."}, "GABAA": {"tested_on": "GABAA", "assay": "PDSP primary binding GABAA", "conditions": "PDSP primary screening", "experimental": "as §1, §2"}, "5-HT1A": {"molecular_target": "5-HT1A (Homo sapiens, UniProt P08908)", "sequence (P08908 whole entry, species assumed)": "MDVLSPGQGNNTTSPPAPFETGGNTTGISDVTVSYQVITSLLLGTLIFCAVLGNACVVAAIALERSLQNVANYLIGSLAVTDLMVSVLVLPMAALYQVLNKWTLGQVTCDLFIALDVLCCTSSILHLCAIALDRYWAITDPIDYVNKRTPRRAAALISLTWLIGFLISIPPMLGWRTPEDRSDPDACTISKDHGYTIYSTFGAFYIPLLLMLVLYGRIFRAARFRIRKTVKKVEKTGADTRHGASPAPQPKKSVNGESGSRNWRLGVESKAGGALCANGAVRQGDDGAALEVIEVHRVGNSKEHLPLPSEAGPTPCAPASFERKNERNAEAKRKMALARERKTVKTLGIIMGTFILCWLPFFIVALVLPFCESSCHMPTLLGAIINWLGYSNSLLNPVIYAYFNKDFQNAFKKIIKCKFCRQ", "assay": "PDSP primary binding 5-HT1A", "conditions": "PDSP primary screening", "experimental": "as §1, §2"}, "Beta1": {"molecular_target": "Beta1 (Homo sapiens, UniProt P08588)", "sequence (P08588 whole entry)": "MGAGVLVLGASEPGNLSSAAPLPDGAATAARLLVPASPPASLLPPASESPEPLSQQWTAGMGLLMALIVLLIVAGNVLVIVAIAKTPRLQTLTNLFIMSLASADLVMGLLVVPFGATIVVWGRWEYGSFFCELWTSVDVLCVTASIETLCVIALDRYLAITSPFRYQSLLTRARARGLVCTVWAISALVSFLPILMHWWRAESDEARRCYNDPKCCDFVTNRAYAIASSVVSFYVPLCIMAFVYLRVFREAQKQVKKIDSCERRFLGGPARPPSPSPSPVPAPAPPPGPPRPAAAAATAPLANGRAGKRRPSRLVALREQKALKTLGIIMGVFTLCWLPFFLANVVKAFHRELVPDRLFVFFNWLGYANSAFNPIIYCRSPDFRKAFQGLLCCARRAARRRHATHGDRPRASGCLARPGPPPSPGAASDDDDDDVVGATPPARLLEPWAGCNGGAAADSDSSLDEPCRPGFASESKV", "assay": "PDSP primary binding Beta1", "conditions": "PDSP primary screening", "experimental": "as §1, §2"}, "Alpha1B": {"molecular_target": "Alpha1B (Homo sapiens, UniProt P35368)", "sequence (P35368 whole entry)": "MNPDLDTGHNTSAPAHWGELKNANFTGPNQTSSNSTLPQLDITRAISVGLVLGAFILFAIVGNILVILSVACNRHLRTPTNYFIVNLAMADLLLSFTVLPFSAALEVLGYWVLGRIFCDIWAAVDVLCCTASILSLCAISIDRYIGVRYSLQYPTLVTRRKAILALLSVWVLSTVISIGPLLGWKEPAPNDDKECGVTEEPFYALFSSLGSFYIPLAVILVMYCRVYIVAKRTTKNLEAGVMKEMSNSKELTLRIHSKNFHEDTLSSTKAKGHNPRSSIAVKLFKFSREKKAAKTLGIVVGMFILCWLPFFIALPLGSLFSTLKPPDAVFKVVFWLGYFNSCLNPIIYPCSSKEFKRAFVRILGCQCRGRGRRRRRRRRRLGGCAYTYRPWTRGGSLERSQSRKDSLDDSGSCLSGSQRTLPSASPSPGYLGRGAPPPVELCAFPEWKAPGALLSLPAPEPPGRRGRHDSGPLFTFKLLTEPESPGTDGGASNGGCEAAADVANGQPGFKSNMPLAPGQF", "assay": "PDSP primary binding Alpha1B", "conditions": "PDSP primary screening", "experimental": "as §1, §2"}, "Alpha2A": {"molecular_target": "Alpha2A (Homo sapiens, UniProt P08913)", "sequence (P08913 whole entry)": "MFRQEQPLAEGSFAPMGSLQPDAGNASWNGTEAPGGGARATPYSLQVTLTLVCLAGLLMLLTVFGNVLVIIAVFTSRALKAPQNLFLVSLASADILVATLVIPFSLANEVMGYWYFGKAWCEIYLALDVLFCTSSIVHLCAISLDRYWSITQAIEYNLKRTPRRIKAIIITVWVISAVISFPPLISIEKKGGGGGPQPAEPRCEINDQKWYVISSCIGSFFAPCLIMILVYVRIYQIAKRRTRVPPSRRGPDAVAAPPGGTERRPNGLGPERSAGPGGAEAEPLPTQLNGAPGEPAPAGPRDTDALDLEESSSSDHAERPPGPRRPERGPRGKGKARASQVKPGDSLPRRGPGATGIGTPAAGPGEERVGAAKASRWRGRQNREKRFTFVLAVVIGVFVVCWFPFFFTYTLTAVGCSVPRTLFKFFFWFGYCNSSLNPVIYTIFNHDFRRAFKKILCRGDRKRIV", "assay": "PDSP primary binding Alpha2A", "conditions": "PDSP primary screening", "experimental": "as §1, §2"}, "M3": {"molecular_target": "M3 (Homo sapiens, UniProt P20309)", "assay": "PDSP primary binding M3", "conditions": "PDSP primary screening", "experimental": "as §1, §2"}, "H2": {"molecular_target": "H2 (Homo sapiens, UniProt P25021)", "assay": "PDSP primary binding H2", "conditions": "PDSP primary screening", "experimental": "as §1, §2"}, "5-HT7": {"molecular_target": "5-HT7 (Homo sapiens, UniProt P34969)", "assay": "PDSP primary binding 5-HT7", "conditions": "PDSP primary screening", "experimental": "as §1, §2"}, "D1": {"molecular_target": "D1 (Homo sapiens, UniProt P21728)", "assay": "PDSP primary binding D1", "conditions": "PDSP primary screening", "experimental": "as §1, §2"}, "M4": {"molecular_target": "M4 (Homo sapiens, UniProt P08173)", "sequence (P08173 whole entry)": "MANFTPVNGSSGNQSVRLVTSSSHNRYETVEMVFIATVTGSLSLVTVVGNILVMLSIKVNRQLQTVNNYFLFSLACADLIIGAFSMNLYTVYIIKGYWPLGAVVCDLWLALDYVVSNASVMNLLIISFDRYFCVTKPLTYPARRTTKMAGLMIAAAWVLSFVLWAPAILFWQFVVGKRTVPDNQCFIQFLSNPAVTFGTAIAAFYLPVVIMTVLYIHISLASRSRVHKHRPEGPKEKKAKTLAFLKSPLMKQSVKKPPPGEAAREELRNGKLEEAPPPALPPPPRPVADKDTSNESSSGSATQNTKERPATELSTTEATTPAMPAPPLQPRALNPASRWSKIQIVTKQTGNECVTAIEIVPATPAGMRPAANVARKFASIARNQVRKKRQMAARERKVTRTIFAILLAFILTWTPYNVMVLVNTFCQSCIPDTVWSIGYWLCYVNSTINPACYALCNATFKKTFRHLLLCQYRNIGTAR", "assay": "PDSP primary binding M4", "conditions": "PDSP primary screening", "experimental": "as §1, §2"}, "5-HT2C": {"molecular_target": "5-HT2C (Homo sapiens, UniProt P28335)", "assay": "PDSP primary binding 5-HT2C", "conditions": "PDSP primary screening", "experimental": "as §1, §2"}, "NET": {"molecular_target": "NET (Homo sapiens, UniProt P23975)", "sequence (P23975 whole entry)": "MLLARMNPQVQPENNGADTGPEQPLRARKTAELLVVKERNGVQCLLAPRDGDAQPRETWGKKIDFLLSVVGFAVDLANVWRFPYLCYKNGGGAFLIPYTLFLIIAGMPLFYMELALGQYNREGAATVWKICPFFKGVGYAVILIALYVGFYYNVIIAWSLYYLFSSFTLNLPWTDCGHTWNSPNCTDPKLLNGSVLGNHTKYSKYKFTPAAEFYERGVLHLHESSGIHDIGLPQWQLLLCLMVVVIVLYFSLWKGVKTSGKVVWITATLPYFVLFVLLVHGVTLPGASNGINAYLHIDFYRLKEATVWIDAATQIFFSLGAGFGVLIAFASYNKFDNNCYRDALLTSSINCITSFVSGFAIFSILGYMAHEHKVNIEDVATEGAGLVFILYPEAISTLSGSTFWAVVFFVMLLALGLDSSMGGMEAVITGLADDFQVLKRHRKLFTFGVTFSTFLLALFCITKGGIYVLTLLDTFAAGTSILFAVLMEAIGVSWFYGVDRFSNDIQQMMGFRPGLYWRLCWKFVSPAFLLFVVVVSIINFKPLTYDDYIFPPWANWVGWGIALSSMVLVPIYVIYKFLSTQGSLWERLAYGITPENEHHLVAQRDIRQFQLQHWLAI", "assay": "PDSP primary binding NET", "conditions": "PDSP primary screening", "experimental": "as §1, §2"}, "Alpha2C": {"molecular_target": "Alpha2C (Homo sapiens, UniProt P18825)", "assay": "PDSP primary binding Alpha2C", "conditions": "PDSP primary screening", "experimental": "as §1, §2"}, "H1": {"molecular_target": "H1 (Homo sapiens, UniProt P35367)", "assay": "PDSP primary binding H1", "conditions": "PDSP primary screening", "experimental": "as §1, §2"}, "5-HT5A": {"molecular_target": "5-HT5A (Homo sapiens, UniProt P47898)", "assay": "PDSP primary binding 5-HT5A", "conditions": "PDSP primary screening", "experimental": "as §1, §2"}, "5-HT1B": {"molecular_target": "5-HT1B (Homo sapiens, UniProt P28222)", "assay": "PDSP primary binding 5-HT1B", "conditions": "PDSP primary screening", "experimental": "as §1, §2"}, "M5": {"molecular_target": "M5 (Homo sapiens, UniProt P08912)", "assay": "PDSP primary binding M5", "conditions": "PDSP primary screening", "experimental": "as §1, §2"}},
  "note": "pEC50, pIC50: −log10 of the molar value.",
  "data": [
    {"smiles": "CCc1noc(-c2ncn3c2[C@@H](C)N=C(c2ccccc2F)c2cc(C4CC4)ccc2-3)n1", "note": "[GL-IV-03, (R)-5-(8-Cyclopropyl-6-(2-fluorophenyl)-4-methyl-4H-benzo[f]imidazo[1,5-a][1,4]diazepin-3-yl)-3-ethyl-1,2,4-oxadiazole]", "values": [
      {"measurement": "iNOS mRNA levels", "setting": "iNOS mRNA; 15, 60, and 180 minutes", "value": "reduced"},
      {"measurement": "iNOS mRNA levels", "setting": "iNOS mRNA; after 6 h", "value": "increased"}
    ]},
    {"smiles": "C#Cc1ccc2c(c1)C(c1ccccc1F)=N[C@H](C)c1c(-c3nc(C(C)C)no3)ncn1-2", "note": "[MP-IV-010, (R)-5-(8-ethynyl-6-(2-fluorophenyl)-4-methyl-4H-benzo[f]imidazo[1,5-a][1,4]diazepin-3-yl)-3-isopropyl-1,2,4-oxadiazole]", "values": [
      {"measurement": "Percent Competition Beta3", "setting": "Beta3", "value": 38, "unit": "%"},
      {"measurement": "Percent Competition Alpha2B", "setting": "Alpha2B", "value": 29, "unit": "%"},
      {"measurement": "Percent Competition HERG binding", "setting": "HERG", "value": 29, "unit": "%"},
      {"measurement": "Percent Competition 5-HT1D", "setting": "5-HT1D", "value": 6, "unit": "%"},
      {"measurement": "Percent Competition D3", "setting": "D3", "value": 15, "unit": "%"},
      {"measurement": "pIC50", "setting": "σ2 receptor", "value": 5.28},
      {"measurement": "Percent Competition Sigma 2", "setting": "σ2 receptor; PDSP primary screening", "value": 64, "unit": "%"},
      {"measurement": "pEC50", "setting": "α3β3γ2 GABAAR", "value": 4.84},
      {"measurement": "Percent Competition GABAA", "setting": "GABAA", "value": "−8", "unit": "%"},
      {"measurement": "Percent Competition 5-HT1A", "setting": "5-HT1A", "value": 19, "unit": "%"},
      {"measurement": "Percent Competition Beta1", "setting": "Beta1", "value": 6, "unit": "%"},
      {"measurement": "Percent Competition Alpha1B", "setting": "Alpha1B", "value": 15, "unit": "%"},
      {"measurement": "Percent Competition Alpha2A", "setting": "Alpha2A", "value": 14, "unit": "%"},
      {"measurement": "Percent Competition M3", "setting": "M3", "value": 0, "unit": "%"},
      {"measurement": "Percent Competition H2", "setting": "H2", "value": 28, "unit": "%"},
      {"measurement": "Percent Competition 5-HT7", "setting": "5-HT7", "value": "−5", "unit": "%"},
      {"measurement": "Percent Competition D1", "setting": "D1", "value": 28, "unit": "%"},
      {"measurement": "Percent Competition M4", "setting": "M4", "value": 8, "unit": "%"},
      {"measurement": "Percent Competition 5-HT2C", "setting": "5-HT2C", "value": "−2", "unit": "%"},
      {"measurement": "Percent Competition NET", "setting": "NET", "value": "−2", "unit": "%"},
      {"measurement": "Percent Competition Alpha2C", "setting": "Alpha2C", "value": 31, "unit": "%"},
      {"measurement": "Percent Competition H1", "setting": "H1", "value": 19, "unit": "%"},
      {"measurement": "Percent Competition 5-HT5A", "setting": "5-HT5A", "value": 11, "unit": "%"},
      {"measurement": "Percent Competition 5-HT1B", "setting": "5-HT1B", "value": 29, "unit": "%"},
      {"measurement": "Percent Competition M5", "setting": "M5", "value": 26, "unit": "%"}
    ]}
  ]
}
